Assay [1] concerns day 8 chick dorsal root ganglia. Kind of assay: Neurite outgrowth from dorsal root ganglia embedded in three dimensional peptide-modified fibrin gels, normalized to unmodified fibrin. Type of assay: cell-based. The conditions noted are these: for concentration of incorporated peptide giving maximal effect on neurite outgrowth / correlation between peptide concentration and level of enhancement of neurite outgrowth / peptide concentration showing maximal enhancement of neurite outgrowth: single peptide cross-linked into fibrin, concentration series; for concentration of incorporated peptide giving maximal effect on neurite outgrowth / peptide concentration showing maximal enhancement of neurite outgrowth: growth at 24 and 48 hr; for Enhancement of Neurite Outgrowth (%): bi-domain peptide cross-linked into fibrin at 8 mol/mol fg without heparin, 48 hours, relative to unmodified fibrin. On the procedure:
FIG. 1 Enhancement of neurite outgrowth with HAV (SEQ. I.D. NO. 6) modified fibrin gels. A concentration series of HAV (SEQ. I.D. NO. 6) cross-linked into fibrin was tested in triplicate with day 8 chick dorsal root ganglia. The level of growth at 24 and 48 hours was calculated and normalized to growth in unmodified fibrin. Mean and standard error of the mean are shown. Legend to FIG. 1: -[…]- 24 Hours, -⋄- 48 Hours.
FIG. 8 Heparin binding peptides derived from three separate proteins, NCAM (SEQ. I.D. NO. 7), platelet factor 4 and antithrombin III were cross-linked into fibrin at 8 mol/mol fg. The level of neurite outgrowth at 48 hours was normalized against growth in unmodified fibrin and is shown below. Additionally, controls of crosslinked peptide with heparin or just soluble peptide were tested. […] Mean and standard error of the mean are shown. Legend for FIG. 8: ? Peptide Grafted at 8 mol/mol Fg, □ Peptide Grafted at 8 mol/mol Fg with Soluble Heparin, ? Peptide Added in Soluble Phase.
Multiple peptide sequences from extracellular matrix proteins have been chosen. These proteins were chosen in part because of their reported ability to enhance neurite outgrowth (Yamada, 1991, Tashiro, et al., 1989). These proteins have been tested at various concentrations. To test these peptides, specific selected peptide sequences were cross-linked into a three dimensional fibrin matrix with a day 8 dorsal root ganglia embedded into the gels. The neurites were grown for 48 hr, and the migration rate of the neurites extending from the ganglia was quantified for each condition at both 24 and 48 hr. This growth was then normalized to the growth in unmodified fibrin. […] HAV (SEQ. I.D. NO. 6) achieved a maximal effect at 2 mol/mol fg while RGD (SEQ. I.D. NO. 2) achieved a maximal effect at 1.5 mol/mol fg of incorporated peptide.
In one example, the peptide was cross-linked into the gel alone and in the second example, it was incorporated in the presence of heparin. […] Therefore, the effects of interaction between the growing neurites and either a heparin binding domain or heparin itself could be determined. When the peptide was incorporated without heparin present, it was able to enhance the extension of neurites from day 8 chick dorsal root ganglia. Three bi-domain peptides, each with a different heparin binding domain, were tested and gave statistically better growth than unmodified fibrin (FIG. 8). The level of improvement ranged from 75% to 25%. This level of enhancement could be correlated to the binding affinity of the heparin binding domain that was incorporated (Table 3). When heparin was added at the beginning of the study, it was discovered that this abolished the effect, resulting in growth similar to that seen in unmodified fibrin.

A short description of assay [2]: Elution from heparin affinity column (relative heparin binding affinity). The conditions noted are these: relative heparin binding affinity of bi-domain peptide. The text has this: Table 3 Provides results of the relative heparin binding affinity and enhancement of three dimensional neurite outgrowth for several heparin binding peptides. There is a correlation between the binding strength for each peptide and the percent enhancement of neurite outgrowth.

Several values for one entry are separate records, joined by “and”; a condition that tells them apart may be missing. Identical values can stand only once.

In the case of HAV (heparin binding peptide), the “concentration of incorporated peptide giving maximal effect on neurite outgrowth” value in assay [1] was determined as 2 mol/mol fg. As for IKVAV (heparin binding peptide), in assay [1], the “correlation between peptide concentration and level of enhancement of neurite outgrowth” value was “linear correlation”; the “peptide concentration showing maximal enhancement of neurite outgrowth” value is on record as 8 mol peptide/mol fibrinogen. As for LNQEQVSP K(βA)FAKLAARLYRKA [ATIII], the “Enhancement of Neurite Outgrowth (%)” value in assay [1] worked out at 73.1%. In assay [2], the “Elution from Heparin Affinity Column (Mol NaCl)” value amounted to 0.67 Mol NaCl. In the same order, the values of “LNQEQVSP KHKGRDVILKKDVR (LNQEQVSPKHKGRDVILKKDVR; heparin binding sequence) [PF4]” are 20.2% and 0.34 Mol NaCl. Turning to “LNQEQVSP YKKIIKKL (LNQEQVSPYKKIIKKL) [NCAM]”, in assay [1], the “Enhancement of Neurite Outgrowth (%)” value came to 24.5%. Besides, the “Elution from Heparin Affinity Column (Mol NaCl)” value in assay [2] was 0.35 Mol NaCl. For RGD, the “concentration of incorporated peptide giving maximal effect on neurite outgrowth” value in assay [1] is 2 mol/mol fg and 1.5 mol/mol fg. Take RNIAEIIKDI: in assay [1], the “correlation between peptide concentration and level of enhancement of neurite outgrowth” value is “linear correlation”; the “peptide concentration showing maximal enhancement of neurite outgrowth” value is reported as 8 mol peptide/mol fibrinogen. In the same order, the values of YIGSR (heparin binding peptide) are “linear correlation” and 6 mol peptide/mol fibrinogen.

The values above are taken from US20030119186A1, “Enzyme-mediated modification of fibrin for tissue engineering: fibrin formulations with peptides” (Eidgenossische Technische Hochschule Zurich, priority 1998, published 2003).
